For one assay, the target named is KAT-8 (Homo sapiens (Human), UniProt Q9H7Z6). The assay can be described thus: KAT-8 biochemical inhibition assay (SAMDI mass spectrometry). Summed up:
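Acetylation of 1 μM peptide substrate with 5 μM acetyl-CoA by 12.5 nM enzyme, compound pre-incubated, 2% DMSO, Tris pH 8.0 buffer with DTT, 25 °C for 90 min. Quench with 0.5% formic acid; product read by SAMDI mass spectrometry to give IC50.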

The target in the next assay is KAT-5 (Homo sapiens (Human), UniProt Q92993). The assay can be described thus: KAT-5 biochemical inhibition assay (SAMDI mass spectrometry). Summed up: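 Acetylation of 1 μM peptide by 9 nM enzyme with 0.5 μM acetyl-CoA (final) was run 90 min at 25° C in Tris pH 8.0 buffer with DTT, after compound preincubation at 2% DMSO. Formic acid stopped the reaction, and product was quantified by SAMDI mass spectrometry to derive IC50.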
Sequence of KAT-5 (Q92993 other isoform, or with tags, fused parts or gaps): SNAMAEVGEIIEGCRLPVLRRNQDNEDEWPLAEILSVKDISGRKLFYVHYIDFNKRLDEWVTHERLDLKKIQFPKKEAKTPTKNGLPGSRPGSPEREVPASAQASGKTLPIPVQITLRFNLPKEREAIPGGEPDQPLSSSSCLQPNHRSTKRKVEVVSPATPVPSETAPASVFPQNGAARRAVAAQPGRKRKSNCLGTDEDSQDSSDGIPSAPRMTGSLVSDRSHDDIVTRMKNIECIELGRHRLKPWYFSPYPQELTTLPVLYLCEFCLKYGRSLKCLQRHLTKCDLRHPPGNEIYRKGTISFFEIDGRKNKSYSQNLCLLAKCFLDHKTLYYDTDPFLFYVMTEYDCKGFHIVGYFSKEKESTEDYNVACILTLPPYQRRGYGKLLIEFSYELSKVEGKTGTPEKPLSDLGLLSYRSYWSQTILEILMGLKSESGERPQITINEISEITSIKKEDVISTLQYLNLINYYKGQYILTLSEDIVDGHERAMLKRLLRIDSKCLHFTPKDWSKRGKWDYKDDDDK

A further assay deals with KAT-6A (Homo sapiens (Human), UniProt Q92794). As to the kind of experiment: KAT-6A biochemical inhibition assay (SAMDI mass spectrometry). Summed up: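 IC50 values came from SAMDI time-of-flight mass spectrometry after formic acid quench (0.5% final). Acetylation ran 90 min at 25 °C with 1 μM acetyl coenzyme A and 1 μM peptide substrate, following compound pre-incubation with 12.5 nM KAT-6A in Tris buffer pH 8.0 containing DTT, 2% DMSO final.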
Sequence of KAT-6A (Q92794 other isoform, or with tags, fused parts or gaps): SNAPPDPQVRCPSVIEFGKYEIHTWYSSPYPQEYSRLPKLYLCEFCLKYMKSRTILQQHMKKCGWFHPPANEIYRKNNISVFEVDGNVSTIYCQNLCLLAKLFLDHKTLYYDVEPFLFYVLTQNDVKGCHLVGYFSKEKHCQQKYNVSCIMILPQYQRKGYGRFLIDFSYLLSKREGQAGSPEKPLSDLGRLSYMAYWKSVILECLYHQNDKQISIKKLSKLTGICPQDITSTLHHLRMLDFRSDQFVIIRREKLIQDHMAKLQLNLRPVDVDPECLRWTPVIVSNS

The next assay has as its target KAT-7 (Homo sapiens (Human), UniProt O95251). As to the kind of experiment: KAT-7 biochemical inhibition assay (SAMDI mass spectrometry). In outline:
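Read-out was SAMDI time-of-flight MS of formic acid-quenched reactions (0.5% final). Compound dilutions (2% DMSO final) were pre-incubated with 6 nM KAT-7 in 50 mM Tris pH 8.0 with 1 mM DTT, then given 1 μM peptide substrate and 2 μM acetyl-CoA for 120 min at 25 °C. IC50 values were derived.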

Consider 26 compounds from US11685732B2, “MYST family histone acetyltransferase inhibitors” (Epizyme, Inc., priority 2017, dated 2023).

The term pIC50 denotes the negative decadic logarithm of the IC50, by convention in mol/L.

Molecules are shown by their SMILES. pIC50: −log10 of the molar value.

Sequence of KAT-8 (Q9H7Z6 other isoform, or with tags, fused parts or gaps): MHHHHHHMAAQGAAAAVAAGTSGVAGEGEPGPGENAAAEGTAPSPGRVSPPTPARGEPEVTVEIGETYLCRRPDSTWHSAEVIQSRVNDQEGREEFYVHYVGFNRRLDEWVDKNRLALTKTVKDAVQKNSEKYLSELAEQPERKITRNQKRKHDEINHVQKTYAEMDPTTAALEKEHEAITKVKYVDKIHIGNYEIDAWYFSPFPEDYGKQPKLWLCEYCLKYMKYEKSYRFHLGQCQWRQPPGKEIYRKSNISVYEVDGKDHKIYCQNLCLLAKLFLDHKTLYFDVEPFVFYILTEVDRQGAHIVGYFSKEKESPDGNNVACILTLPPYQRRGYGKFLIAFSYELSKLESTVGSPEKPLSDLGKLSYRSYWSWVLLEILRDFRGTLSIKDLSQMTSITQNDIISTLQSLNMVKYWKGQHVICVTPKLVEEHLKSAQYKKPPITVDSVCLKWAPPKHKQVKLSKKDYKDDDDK
Sequence of KAT-7 (O95251 other isoform, or with tags, fused parts or gaps): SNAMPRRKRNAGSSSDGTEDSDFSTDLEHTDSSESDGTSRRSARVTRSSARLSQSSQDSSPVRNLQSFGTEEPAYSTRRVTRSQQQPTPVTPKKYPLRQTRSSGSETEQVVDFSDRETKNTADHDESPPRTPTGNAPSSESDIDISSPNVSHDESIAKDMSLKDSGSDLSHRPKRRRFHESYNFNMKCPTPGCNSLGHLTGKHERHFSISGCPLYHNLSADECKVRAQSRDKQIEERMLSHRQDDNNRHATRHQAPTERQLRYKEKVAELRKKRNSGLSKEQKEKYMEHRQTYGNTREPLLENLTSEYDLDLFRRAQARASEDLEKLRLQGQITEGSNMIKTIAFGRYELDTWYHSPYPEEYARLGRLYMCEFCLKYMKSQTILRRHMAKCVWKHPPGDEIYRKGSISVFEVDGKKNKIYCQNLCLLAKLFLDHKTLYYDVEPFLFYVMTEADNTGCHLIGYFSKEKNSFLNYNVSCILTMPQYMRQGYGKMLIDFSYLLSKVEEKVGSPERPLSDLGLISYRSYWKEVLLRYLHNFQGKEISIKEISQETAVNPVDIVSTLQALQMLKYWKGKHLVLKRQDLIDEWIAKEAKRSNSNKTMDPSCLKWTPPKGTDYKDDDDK

In the case of `CN(C)C(=O)N[C@H]1C[C@H](CS(=O)(=O)NNC(=O)c2cc(-c3cn(C)cn3)cc(Cl)c2F)C1` [Compound I-180], the pIC50 against KAT-8 was 4.30 to 5.00; against KAT-5, greater than 5.00; on KAT-6A, greater than 5.00; at KAT-7 it was greater than 5.00.
For `COc1ccc(CNC(=O)N2CCC(CS(=O)(=O)NNC(=O)c3cc(-c4cn(C)cn4)cc(Cl)c3F)C2)cc1` (centres unmarked) [Compound I-181], the pIC50 on KAT-8 was 4.30 to 5.00; against KAT-5, greater than 5.00; at KAT-6A, greater than 5.00; against KAT-7, greater than 5.00.
As for `CNC(=S)N1CC[C@@H](CS(=O)(=O)NNC(=O)c2cc(-c3cn(C)cn3)cc(Cl)c2F)C1` [Compound I-183], the pIC50 is 4.30 to 5.00 against KAT-8, greater than 5.00 against KAT-5, greater than 5.00 on KAT-6A and greater than 5.00 against KAT-7.
On to `CC(=O)N[C@H]1CC[C@@H](CS(=O)(=O)NNC(=O)c2cc(-c3cn(C)cn3)cc(Cl)c2F)CC1` [Compound I-184], for which the pIC50 against KAT-8 was 4.30 to 5.00; against KAT-5 it was greater than 5.00; on KAT-6A, greater than 5.00; on KAT-7, greater than 5.00.
Take `Cn1cnc(-c2cc(Cl)c(F)c(C(=O)NNS(=O)(=O)CC3CN(S(=O)(=O)C4CC4)C3)c2)c1` [Compound I-185]: the pIC50 on KAT-8 is 4.30 to 5.00; against KAT-5 it was 4.30 to 5.00; at KAT-6A, greater than 5.00; against KAT-7, greater than 5.00.
Regarding `CNC(=O)N[C@H]1C[C@@H](CS(=O)(=O)NNC(=O)c2cc(-c3cn(C)cn3)cc(Cl)c2F)C1` [Compound I-186], the pIC50 against KAT-8 was 4.30 to 5.00; on KAT-5, greater than 5.00; at KAT-6A it was greater than 5.00; on KAT-7, greater than 5.00.
As for `CC(C)NC(=O)N1CCCC(CS(=O)(=O)NNC(=O)c2cc(-c3cn(C)cn3)cc(Cl)c2F)C1` (centres unmarked) [Compound I-187], the pIC50 at KAT-8 is 4.30 to 5.00; against KAT-5, greater than 5.00; against KAT-6A, greater than 5.00; at KAT-7, greater than 5.00.
For `CNC(=O)N[C@H]1C[C@H](CS(=O)(=O)NNC(=O)c2cc(-c3cn(C)cn3)cc(Cl)c2F)C1` [Compound I-188], the negative logarithm of the IC50 (pIC50) against KAT-8 was 4.30 to 5.00; at KAT-5 it was 4.30 to 5.00; against KAT-6A, 4.30 to 5.00; against KAT-7 it was greater than 5.00.
As to `COCCN(Cc1ccc(OC)cc1)C(=O)N1CCC(CS(=O)(=O)NNC(=O)c2cc(-c3cn(C)cn3)cc(Cl)c2F)C1` (centres unmarked) [Compound I-189], the negative logarithm of the IC50 (pIC50) against KAT-8 is 4.30 to 5.00; on KAT-5, greater than 5.00; on KAT-6A, greater than 5.00; against KAT-7 it was greater than 5.00.
Consider `COCCNC(=O)N1CCC(CS(=O)(=O)NNC(=O)c2cc(-c3cn(C)cn3)cc(Cl)c2F)C1` (centres unmarked) [Compound I-190], for which the pIC50 at KAT-8 was 4.30 to 5.00; against KAT-5 it was greater than 5.00; against KAT-6A it was greater than 5.00; on KAT-7 it was greater than 5.00.
Regarding `CNC(=O)N1CCCC(CS(=O)(=O)NNC(=O)c2cc(-c3cn(C)cn3)cc(Cl)c2F)C1` (centres unmarked) [Compound I-191], the pIC50 was 4.30 to 5.00 on KAT-8, greater than 5.00 against KAT-5, greater than 5.00 at KAT-6A and greater than 5.00 at KAT-7.
For `COCCc1nc(-c2cc(Cl)c(F)c(C(=O)NNS(=O)(=O)CC3CCCCC3)c2)cn1C` [Compound I-192], the pIC50 against KAT-8 was 4.30 to 5.00; at KAT-5, 4.30 to 5.00; against KAT-6A, 4.30 to 5.00; against KAT-7 it was greater than 5.00.
For `CC(C)S(=O)(=O)N1CC(CS(=O)(=O)NNC(=O)c2cc(-c3cn(C)cn3)cc(Cl)c2F)C1` [Compound I-193], the pIC50 against KAT-8 was 4.30 to 5.00; at KAT-5, 4.30 to 5.00; against KAT-6A it was greater than 5.00; on KAT-7 it was greater than 5.00.
As for `Cn1cnc(-c2cc(Cl)c(F)c(C(=O)NNS(=O)(=O)C[C@H]3CC[C@H](NC(N)=O)CC3)c2)c1` [Compound I-194], the pIC50 against KAT-8 was 4.30 to 5.00; on KAT-5, greater than 5.00; at KAT-6A it was greater than 5.00; on KAT-7, greater than 5.00.
Turning to `CCC(=O)N[C@H]1CC[C@H](CS(=O)(=O)NNC(=O)c2cc(-c3cn(C)cn3)cc(Cl)c2F)CC1` [Compound I-195], the pIC50 is 4.30 to 5.00 against KAT-8, greater than 5.00 on KAT-5, greater than 5.00 at KAT-6A and greater than 5.00 against KAT-7.
Regarding `Cn1cnc(-c2cc(Cl)c(F)c(C(=O)NNS(=O)(=O)C[C@H]3CC[C@H](NC(=O)C4CCC4)CC3)c2)c1` [Compound I-196], the pIC50 on KAT-8 was 4.30 to 5.00; on KAT-5 it was greater than 5.00; against KAT-6A it was greater than 5.00; against KAT-7, greater than 5.00.
Regarding `CC(C)NC(=O)N1CCC(CS(=O)(=O)NNC(=O)c2cc(-c3cn(C)cn3)cc(Cl)c2F)C1` (centres unmarked) [Compound I-198], the negative-log IC50 (pIC50) was 4.30 to 5.00 on KAT-8, greater than 5.00 at KAT-5, greater than 5.00 against KAT-6A and greater than 5.00 against KAT-7.
Consider `CCC(=O)NC1CCCC(CS(=O)(=O)NNC(=O)c2cc(-c3cn(C)cn3)cc(Cl)c2F)C1` (centres unmarked) [Compound I-199], for which the pIC50 against KAT-8 was 4.30 to 5.00; against KAT-5 it was greater than 5.00; against KAT-6A, greater than 5.00; against KAT-7, greater than 5.00.
For the compound `Cn1cnc(-c2cc(Cl)c(F)c(C(=O)NNS(=O)(=O)C[C@H]3CC[C@@H](NC(N)=O)CC3)c2)c1` [Compound I-200], the pIC50 at KAT-8, against KAT-5, at KAT-6A and on KAT-7 was greater than 5.00 each time.
For `CC(C)C(=O)N[C@H]1CC[C@H](CS(=O)(=O)NNC(=O)c2cc(-c3cn(C)cn3)cc(Cl)c2F)CC1` [Compound I-201], the pIC50 was 4.30 to 5.00 on KAT-8, greater than 5.00 against KAT-5, greater than 5.00 against KAT-6A and greater than 5.00 on KAT-7.
For the compound `COc1ccc(CN(C)C(=O)N2CC(CS(=O)(=O)NNC(=O)c3cc(-c4cn(C)cn4)cc(Cl)c3F)C2)cc1` [Compound I-202], the negative logarithm of the IC50 (pIC50) against KAT-8 is 4.30 to 5.00; against KAT-5, greater than 5.00; at KAT-6A, greater than 5.00; against KAT-7, greater than 5.00.
On to `COc1ccc(CNC(=O)N2CC(CS(=O)(=O)NNC(=O)c3cc(-c4cn(C)cn4)cc(Cl)c3F)C2)cc1` [Compound I-203], for which the pIC50 against KAT-8 was 4.30 to 5.00; against KAT-5, greater than 5.00; at KAT-6A, greater than 5.00; on KAT-7, greater than 5.00.
For the compound `CC(C)NC(=O)N1CC(CS(=O)(=O)NNC(=O)c2cc(-c3cn(C)cn3)cc(Cl)c2F)C1` [Compound I-204], the pIC50 against KAT-8 was 4.30 to 5.00; on KAT-5 it was 4.30 to 5.00; at KAT-6A, 4.30 to 5.00; against KAT-7 it was greater than 5.00.
In the case of `Cn1cnc(-c2cc(Cl)c(F)c(C(=O)NNS(=O)(=O)CC3CCN(C(N)=O)C3)c2)c1` (centres unmarked) [Compound I-205], the negative logarithm of the IC50 (pIC50) at KAT-8 is 4.30 to 5.00; at KAT-5, greater than 5.00; against KAT-6A, greater than 5.00; on KAT-7 it was greater than 5.00.
On to `CC(C)C(=O)NC1CCCC(CS(=O)(=O)NNC(=O)c2cc(-c3cn(C)cn3)cc(Cl)c2F)C1` (centres unmarked) [Compound I-206], for which the pIC50 on KAT-8 was 4.30 to 5.00; on KAT-5 it was greater than 5.00; against KAT-6A, greater than 5.00; against KAT-7 it was greater than 5.00.
Take `Cn1cnc(-c2cc(Cl)c(F)c(C(=O)NNS(=O)(=O)C[C@H]3C[C@H](NC(N)=O)C3)c2)c1` [Compound I-207]: the pIC50 on KAT-8 is 4.30 to 5.00; on KAT-5, 4.30 to 5.00; against KAT-6A, greater than 5.00; against KAT-7 it was greater than 5.00.
